Assay results taken from patent US7700609B2, “Compositions useful as inhibitors of protein kinases” (Vertex Pharmaceuticals Incorporated, priority 2003, dated 2010).

biological target: T1, Itk (Homo sapiens, UniProt Q08881); assay: Itk inhibition assay: Alphascreen (Method B); type: biochemical; conditions: 100 μM ATP
T1 sequence (Q08881 1-620): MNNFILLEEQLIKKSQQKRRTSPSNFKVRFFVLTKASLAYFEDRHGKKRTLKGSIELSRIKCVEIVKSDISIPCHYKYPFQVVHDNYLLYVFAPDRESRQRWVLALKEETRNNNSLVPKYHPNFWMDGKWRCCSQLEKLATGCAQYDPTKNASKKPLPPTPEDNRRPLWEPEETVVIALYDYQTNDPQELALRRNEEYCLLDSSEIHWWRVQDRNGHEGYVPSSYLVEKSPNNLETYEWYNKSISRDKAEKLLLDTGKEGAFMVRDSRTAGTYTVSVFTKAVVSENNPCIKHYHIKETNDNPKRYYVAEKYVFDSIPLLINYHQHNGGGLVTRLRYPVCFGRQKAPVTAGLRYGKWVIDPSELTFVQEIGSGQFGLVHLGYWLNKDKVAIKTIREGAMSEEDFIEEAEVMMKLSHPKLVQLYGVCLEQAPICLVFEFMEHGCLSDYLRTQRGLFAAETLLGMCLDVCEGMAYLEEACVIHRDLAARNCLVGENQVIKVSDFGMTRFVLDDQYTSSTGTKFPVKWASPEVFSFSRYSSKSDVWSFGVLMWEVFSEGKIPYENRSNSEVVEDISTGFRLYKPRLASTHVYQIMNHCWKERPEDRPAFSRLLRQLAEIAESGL
Protocol: The compounds of the present invention were evaluated as inhibitors of human Itk kinase using either a radioactivity-based, spectrophotometric or alphascreen assay.
Assays were carried out in a mixture of 20 mM MOPS (pH 7.0), 10 mM MgCl2, 0.1% BSA and 1 mM DTT. Final substrate concentrations in the assay were 100 μM ATP (Sigma Chemicals) and 2 μM peptide (Biotinylated SAM68 Δ332-443). Assays were carried out at 25° C. and in the presence of 10 nM Itk. An assay stock buffer solution was prepared containing all of the reagents listed above, with the exception of ATP and the test compound of interest. 25 μL of the stock solution was placed in each well of a 96 well plate followed by 1 μL of DMSO containing serial dilutions of the test compound (typically starting from a final concentration of 15 μM) in duplicate (final DMSO concentration 2%). The plate was preincubated for 10 minutes at 25° C. and the reaction initiated by addition of 25 μL ATP (final concentration 100 μM). Background counts were determined by the addition of 5 μL 500 mM EDTA to control wells containing assay stock buffer and DMSO prior to initiation with ATP. The reaction was stopped after 30 minutes by diluting the reaction 225-fold into MOPS buffer (20 mM MOPS (pH 7.0), 1 mM DTT, 10 mM MgCl2, 0.1% BSA) containing 50 mM EDTA to bring the final concentration of peptide to 9 nM.
AlphaScreen™ reagents were prepared according to the manufacturers instructions (AlphaScreen™ phosphotyrosine (P-Tyr-100) assay kit, PerkinElmer catalogue number 6760620C). Under subdued lighting, 20 μL of AlphaScreen™ reagents were placed in each well of a white half area 96 well plate (Corning Inc.—COSTAR 3693) with 30 μL of the stopped, diluted kinase reactions. Plates were incubated in the dark for 60 minutes prior to reading on a Fusion Alpha plate reader (PerkinElmer).
After removing mean background values for all of the data points, Ki(app) data were calculated from non-linear regression analysis using the Prism software package (GraphPad Prism version 3.0cx for Macintosh, GraphPad Software, San Diego Calif., USA).

Ki, < 1000 nM:
CC(C)(C)OC(=O)NC1CCN(C(=O)c2cc3c(ccc4cnc(Nc5cccc(S(N)(=O)=O)c5)nc43)s2)C1 (stereo not drawn) [Compound V-47], CC(C)(C)OC(=O)NCCCNC(=O)c1cc2c(ccc3cnc(Nc4cccc(S(N)(=O)=O)c4)nc32)s1 [Compound V-39], NC1CCN(C(=O)c2cc3c(ccc4cnc(Nc5ccccc5)nc43)s2)C1 (stereo not drawn) [Compound V-54], CC(C)(C)OC(=O)NC1CCN(C(=O)c2cc3c(ccc4cnc(Nc5cccc(S(N)(=O)=O)c5)nc43)s2)CC1 [Compound V-46], CN1CCN(C(=O)c2cc3c(ccc4cnc(Nc5cccc(S(N)(=O)=O)c5)nc43)s2)CC1 [Compound V-40], CC(C)(C)C(=O)OCc1nc2ccc3cnc(Nc4cccc(S(N)(=O)=O)c4)nc3c2s1 [II-36], CNCCNC(=O)c1cc2c(ccc3cnc(Nc4cccc(S(N)(=O)=O)c4)nc32)s1 [Compound V-43], COc1cccc(-c2cc3c(s2)CCc2cnc(Nc4cccc(NC(C)=O)c4)nc2-3)c1 [Compound I-36], CCN(CC)c1nc2c(s1)-c1nc(Nc3cccc(S(N)(=O)=O)c3)ncc1CC2 [III-33], CC(C)(C)C(=O)OCc1nc2c(s1)-c1nc(Nc3cccc(S(N)(=O)=O)c3)ncc1CC2 [III-31], NC1CCN(C(=O)c2cc3c(ccc4cnc(Nc5cccc(S(N)(=O)=O)c5)nc43)s2)C1 (stereo not drawn) [Compound V-49], CN1CCC(Nc2nc3c(s2)-c2nc(Nc4cccc(S(N)(=O)=O)c4)ncc2CC3)CC1 [III-35], NC1CCN(C(=O)c2cc3c(ccc4cnc(Nc5cccc(S(N)(=O)=O)c5)nc43)s2)CC1 [Compound V-48], NS(=O)(=O)c1cccc(Nc2ncc3ccc4sc(C(=O)N5CCNCC5)cc4c3n2)c1 [Compound V-4], Cc1nc2c(s1)CCc1cnc(Nc3cccc(S(N)(=O)=O)c3)nc1-2 [IV-4], CN(C)CCNC(=O)c1cc2c(ccc3cnc(Nc4cccc(S(N)(=O)=O)c4)nc32)s1 [Compound V-42], CC(C)(C)OC(=O)N1CCN(C(=O)c2cc3c(ccc4cnc(Nc5cccc(S(N)(=O)=O)c5)nc43)s2)CC1 [Compound V-38], CC1(C)Cc2cnc(Nc3cccc(S(N)(=O)=O)c3)nc2-c2ccsc21 [Compound I-41], CCN(CC)c1nc2ccc3cnc(Nc4cccc(S(N)(=O)=O)c4)nc3c2s1 [II-38], Cc1nc2c(s1)-c1nc(Nc3cccc(S(N)(=O)=O)c3)ncc1CC2 [III-4], NS(=O)(=O)c1cccc(Nc2ncc3ccc4nc(N5CCCCC5)sc4c3n2)c1 [II-39], CN1CCN(c2nc3c(s2)-c2nc(Nc4cccc(S(N)(=O)=O)c4)ncc2CC3)CC1 [III-39], NS(=O)(=O)c1cccc(Nc2ncc3ccc4sc(C(=O)N5CCOCC5)cc4c3n2)c1 [Compound V-37], Cc1nc2ccc3cnc(Nc4cccc(S(N)(=O)=O)c4)nc3c2s1 [II-35], Nc1cccc(Nc2ncc3ccc4sccc4c3n2)c1 [II-34], NCCCNC(=O)c1cc2c(ccc3cnc(Nc4cccc(S(N)(=O)=O)c4)nc32)s1 [Compound V-45], NS(=O)(=O)c1cccc(Nc2ncc3c(n2)-c2sc(N4CCOCC4)nc2CC3)c1 [III-32], NS(=O)(=O)c1cccc(Nc2ncc3ccc4sc(C(=O)N5CCCCC5)cc4c3n2)c1 [Compound V-36], NS(=O)(=O)c1cccc(Nc2ncc3c(n2)-c2sc(CO)nc2CC3)c1 [III-38], NS(=O)(=O)c1cccc(Nc2ncc3ccc4nc(C(=O)N5CCNCC5)sc4c3n2)c1 [II-13]
